Results published in article PMC8066102, “Metabolic Profiles of New Unsymmetrical Bisacridine Antitumor Agents in Electrochemical and Enzymatic Noncellular Systems and in Tumor Cells” (Pharmaceuticals, 2021).

Tests used:
Format in all cases: in vitro ADME
UGT1A1 = target: T1, UGT1A1 (Homo sapiens, UniProt P22309); experiment: Glucuronidation with recombinant UGT1A1; set-up: His tag; purchased Corning, NY, USA (through DIAG-MED, Poland); host or cells: baculovirus-insect cells (Supersomes); Results say Sf9 cells; key: −: the lack of UGT activity; +: the significant UGT activity; conditions: 0.05 mM compound, 1 mg/mL UGT, 5 mM UDPGA
T1 sequence (P22309 26-533): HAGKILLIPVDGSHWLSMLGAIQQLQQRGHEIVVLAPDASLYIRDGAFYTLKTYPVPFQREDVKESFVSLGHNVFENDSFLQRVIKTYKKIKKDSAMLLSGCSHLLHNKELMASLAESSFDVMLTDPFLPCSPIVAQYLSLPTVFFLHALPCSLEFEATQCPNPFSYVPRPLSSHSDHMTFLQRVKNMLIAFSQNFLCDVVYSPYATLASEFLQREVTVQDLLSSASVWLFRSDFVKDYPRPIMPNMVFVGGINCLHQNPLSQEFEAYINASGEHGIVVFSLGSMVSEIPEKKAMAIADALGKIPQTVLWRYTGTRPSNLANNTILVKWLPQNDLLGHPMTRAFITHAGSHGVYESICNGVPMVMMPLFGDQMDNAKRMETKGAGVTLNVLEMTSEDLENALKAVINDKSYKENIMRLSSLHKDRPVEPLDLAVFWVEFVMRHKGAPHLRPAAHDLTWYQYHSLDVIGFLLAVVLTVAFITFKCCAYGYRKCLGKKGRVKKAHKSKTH
Method: (§1) Recombinant UGT isoform protein (1 mg/mL) was assayed for activity toward tested UAs as follows. The proteins were incubated in a buffer containing 0.1 M HEPES (pH 7.4), 8 mM MgCl2 and alamethicin (25 μg/mL) with either 0.05 mM substrate in total volume 70 µL (alamethicin was added to permeabilize the membrane). Substrates were also in buffer HEPES, pH 7.4. Reactions were started by the addition of UDPGA (5 mM) and were incubated for specified time at 37 °C. The reactions were stopped by the addition of 8.75 µL of 1 M HCl, followed by centrifugation at 13400 rpm for 10 min to pellet the denatured protein. The supernatant fractions were used for HPLC analysis. Control reactions omitting substrate were run with each assay. All incubations were performed in two repetitions.

P4503A4 = target: T2, P4503A4 (Homo sapiens, UniProt P08684); experiment: Metabolism with human recombinant P4503A4; conditions: 0.05 mM compound, 1 mg/mL P4503A4, 2 mM NADPH, 30 min
T2 construct: purchased Cypex, Dundee, Scotland, UK (through Tebu-Bio); host or cells: Escherichia coli (Bactosomes)
T2 sequence (P08684 whole entry): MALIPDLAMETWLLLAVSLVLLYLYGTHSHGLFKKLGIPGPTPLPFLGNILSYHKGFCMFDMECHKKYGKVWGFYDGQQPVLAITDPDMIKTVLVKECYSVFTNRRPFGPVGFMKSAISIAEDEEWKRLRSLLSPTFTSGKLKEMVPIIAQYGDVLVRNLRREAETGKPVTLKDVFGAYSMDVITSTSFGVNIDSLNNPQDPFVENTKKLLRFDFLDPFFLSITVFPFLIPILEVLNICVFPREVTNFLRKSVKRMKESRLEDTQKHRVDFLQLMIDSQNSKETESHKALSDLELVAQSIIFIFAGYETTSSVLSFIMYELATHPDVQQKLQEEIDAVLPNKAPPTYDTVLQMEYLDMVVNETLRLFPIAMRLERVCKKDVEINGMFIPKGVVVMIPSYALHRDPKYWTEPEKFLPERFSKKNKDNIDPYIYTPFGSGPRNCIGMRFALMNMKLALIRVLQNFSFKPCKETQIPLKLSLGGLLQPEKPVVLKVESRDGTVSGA
Method: UT-RLMs (2 mg/mL) and P450-RLMs induced with Dex, 3MC, or PB and recombinant P4502C19 and P4503A4 (1 mg/mL) were assayed for activity toward tested UAs as follows. The proteins were incubated in a buffer containing 0.1 M HEPES (pH 7.4), 2 mM MgCl2 with 0.05 mM substrate in total volume 70 µL. Substrates were added also in buffer HEPES, pH 7.4. Reactions were started by the addition of NADPH (2 mM) and were incubated for specified time at 37 °C. The reactions were stopped by the addition of 8.75 µL of 1 M HCl, followed by centrifugation at 13,400 rpm for 10 min to pellet the denatured protein. The supernatant fractions were used for high-performance liquid chromatography (HPLC) analysis. Control reactions omitting substrate were run with each assay. All incubations were performed in two repetitions.

UGT 2B4 = target: T3, UGT 2B4 (Homo sapiens, UniProt P06133); experiment: Glucuronidation with recombinant UGT2B4; set-up: key: −: the lack of UGT activity; +: the significant UGT activity; conditions: 0.05 mM compound, 1 mg/mL UGT, 5 mM UDPGA
T3 construct: purchased Corning, NY, USA (through DIAG-MED, Poland); host or cells: baculovirus-insect cells (Supersomes)
T3 sequence (P06133 24-528): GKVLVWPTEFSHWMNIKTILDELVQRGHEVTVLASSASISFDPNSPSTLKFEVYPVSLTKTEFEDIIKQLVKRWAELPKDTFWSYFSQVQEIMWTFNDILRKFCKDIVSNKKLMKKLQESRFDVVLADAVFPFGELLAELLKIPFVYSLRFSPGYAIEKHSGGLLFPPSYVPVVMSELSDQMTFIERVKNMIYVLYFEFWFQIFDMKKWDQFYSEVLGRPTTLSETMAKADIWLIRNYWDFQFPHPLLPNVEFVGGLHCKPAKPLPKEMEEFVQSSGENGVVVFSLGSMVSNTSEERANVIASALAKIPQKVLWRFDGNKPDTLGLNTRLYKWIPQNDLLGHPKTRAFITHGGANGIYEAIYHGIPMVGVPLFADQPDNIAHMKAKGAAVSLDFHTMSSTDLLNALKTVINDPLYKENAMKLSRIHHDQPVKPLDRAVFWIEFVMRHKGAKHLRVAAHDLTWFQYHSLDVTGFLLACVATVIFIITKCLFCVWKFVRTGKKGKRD
Method: as §1

UGT 1A10 = target: T4, UGT 1A10 (Homo sapiens, UniProt Q9HAW8); experiment: Glucuronidation with recombinant UGT1A10; set-up: key to Glucuronidation potency UGT 1A10: −: the lack of UGT activity; +: the significant UGT activity; conditions: 0.05 mM compound; for Glucuronidation potency UGT 1A10: 1 mg/mL UGT, 5 mM UDPGA
T4 construct: His tag; purchased Corning, NY, USA (through DIAG-MED, Poland); host or cells: baculovirus-insect cells (Supersomes); Results say Sf9 cells
T4 sequence (Q9HAW8 26-530): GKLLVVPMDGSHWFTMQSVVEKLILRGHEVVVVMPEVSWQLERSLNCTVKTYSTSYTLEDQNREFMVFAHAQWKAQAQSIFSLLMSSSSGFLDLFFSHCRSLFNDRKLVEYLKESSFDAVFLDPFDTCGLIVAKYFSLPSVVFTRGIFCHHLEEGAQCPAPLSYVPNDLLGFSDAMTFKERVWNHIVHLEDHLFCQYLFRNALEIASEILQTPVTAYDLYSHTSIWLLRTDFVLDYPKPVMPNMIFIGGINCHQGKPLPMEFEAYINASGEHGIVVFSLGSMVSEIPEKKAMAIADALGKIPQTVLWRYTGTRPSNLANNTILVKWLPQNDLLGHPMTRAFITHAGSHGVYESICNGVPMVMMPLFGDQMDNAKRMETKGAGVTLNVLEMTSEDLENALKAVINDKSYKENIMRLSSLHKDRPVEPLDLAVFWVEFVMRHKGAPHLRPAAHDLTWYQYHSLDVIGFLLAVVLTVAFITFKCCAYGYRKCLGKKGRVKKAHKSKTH
Method: as §1

Glucuronidation potency UGT 1A1 (UGT1A1) | substrate transformed (P4503A4) | Glucuronidation potency UGT 2B4 (UGT 2B4) | Glucuronidation potency UGT 1A10 (UGT 1A10) | rate of metabolism (glucuronidation) with UGT1A10 (UGT 1A10; 1 mg/mL UGT1A10, 5 mM UDPGA, 120 min) [%] | Structure (SMILES)
− | 72% | − | − |  | CN(CCCNc1c2ccccc2nc2cccc([N+](=O)[O-])c12)CCCNc1ccc2ncn3c4ccccc4c(=O)c1c23 [C-2028]
+ | 30% | − | + | 18 | Cc1ccc([N+](=O)[O-])c2c(NCCCN(C)CCCNc3ccc4ncn5c6ccc(O)cc6c(=O)c3c45)c3ccccc3nc12 [C-2045]
− | approximately 77% | − | − |  | Cc1ccc([N+](=O)[O-])c2c(NCCCN(C)CCCNc3ccc4ncn5c6ccccc6c(=O)c3c45)c3ccccc3nc12 [C-2053]
